Experimental data: ChEMBL document CHEMBL3046842, “Antimicrobial and insect antifeedant activities of some Trogers bases” (2012)
Active and inactive are the calls of the source. Unless noted, no cut-off for these calls is given here.

Columns and labels:
[1] = system: Escherichia coli; test: Antibacterial activity against Escherichia coli at 250 ug/ml after 24 to 45 hrs by disc diffusion method; assay type: functional; conditions: read-out: IZ
[2] = system: Pseudomonas; test: Antibacterial activity against Pseudomonas at 250 ug/ml after 24 to 45 hrs by disc diffusion method; assay type: functional; conditions: read-out: IZ
[3] = system: Enterococcus faecalis; test: Antibacterial activity against Enterococcus faecalis at 250 ug/ml after 24 to 45 hrs by disc diffusion method; assay type: functional
[4] = system: Staphylococcus aureus; test: Antibacterial activity against Staphylococcus aureus at 250 ug/ml after 24 to 45 hrs by disc diffusion method; assay type: functional; conditions: read-out: IZ
[5] = system: Penicillium; test: Antifungal activity against Penicillium at 50 ug/ml after 72 hrs by disc diffusion method; assay type: functional, organism-based
[6] = system: Achaea janata; test: Antifeedant activity against fourth instar larvae of Achaea janata fed on compound treated castor leaves at 150 ppm after 24 hrs by leaf disc method; assay type: functional, organism-based
[7] = system: Candida albicans; test: Antifungal activity against Candida albicans at 250 ug/ml after 72 hrs by disc diffusion method; assay type: functional
[8] = system: Achaea janata; test: Antifeedant activity against fourth instar larvae of Achaea janata fed on compound treated castor leaves at 200 ppm after 24 hrs by leaf disc method; assay type: functional, organism-based
[9] = system: Klebsiella pneumoniae; test: Antibacterial activity against Klebsiella pneumoniae at 250 ug/ml after 24 to 45 hrs by disc diffusion method; assay type: functional; conditions: read-out: IZ
[10] = system: Proteus vulgaris; test: Antibacterial activity against Proteus vulgaris at 250 ug/ml after 24 to 45 hrs by disc diffusion method; assay type: functional; conditions: read-out: IZ
[11] = system: Aspergillus niger; test: Antifungal activity against Aspergillus niger at 50 ug/ml after 72 hrs by disc diffusion method; assay type: functional, organism-based

Row | Structure (SMILES) | zone of inhibition at 250 µg/mL [1] [mm] | zone of inhibition at 250 µg/mL [2] [mm] | Activity [3] | zone of inhibition at 250 µg/mL [4] [mm] | Activity [5] | Activity [6] | Activity [7] | Activity [8] | zone of inhibition at 250 µg/mL [9] [mm] | zone of inhibition at 250 µg/mL [10] [mm] | Activity [11]
1 | Fc1cc(F)c2c(c1)CN1CN2Cc2cc(F)cc(F)c21 | 13 | 8 | inactive | 8 | inactive | Active | inactive | Active | 8 | 8 | inactive
2 | FC(F)(F)c1ccc2c(c1)CN1CN2Cc2cc(C(F)(F)F)ccc21 | 13 | 13 | inactive | 13 | inactive | Active | inactive | Active | 13 | 13 | inactive
